Results taken from PubChem BioAssay (NCI).
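Growth conditions: 96-well plates. Treatment: test compound, 48 hours, 5 concentrations. Analysis: linear interpolation between bracketing concentrations; unreached endpoints set to highest concentration. GI50 = concentration required for 50% inhibition of growth. At the TGI there is no net growth.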

How the values were obtained:
Test in all cases: growth of human tumour cells (NCI), 48 h
CAKI-1 renal = tested on: CAKI-1 renal
IGROV1 ovarian = tested on: IGROV1 ovarian
NCI-H460 lung = tested on: NCI-H460 lung
OVCAR-3 ovarian = tested on: OVCAR-3 ovarian
SF-539 CNS = tested on: SF-539 CNS
SN12C renal = tested on: SN12C renal
TK-10 renal = tested on: TK-10 renal
UO-31 renal = tested on: UO-31 renal
DLD-1 colon = tested on: DLD-1 colon
DMS 114 small cell lung = tested on: DMS 114 small cell lung

Structure (SMILES)	GI50 (CAKI-1 renal) [µM]	TGI (CAKI-1 renal) [µM]	GI50 (IGROV1 ovarian) [µM]	TGI (IGROV1 ovarian) [µM]	GI50 (NCI-H460 lung) [µM]	TGI (NCI-H460 lung) [µM]	GI50 (OVCAR-3 ovarian) [µM]	TGI (OVCAR-3 ovarian) [µM]	GI50 (SF-539 CNS) [µM]	TGI (SF-539 CNS) [µM]	GI50 (SN12C renal) [µM]	TGI (SN12C renal) [µM]	GI50 (TK-10 renal) [µM]	TGI (TK-10 renal) [µM]	GI50 (UO-31 renal) [µM]	TGI (UO-31 renal) [µM]	TGI (DLD-1 colon) [µM]	TGI (DMS 114 small cell lung) [µM]
Cc1cc2c(C(C)C)c(O)c(O)c(C=O)c2c(O)c1-c1c(C)cc2c(C(C)C)c(O)c(O)c(C=O)c2c1O (tested in a mixture with another compound)	0.966	4.81	0.979	12.7	0.484	1.87	1.03	2.69	1.33	4.42	1.66	5.95	0.546	2.93	1.64	4.56		
CC(=O)N[C@@H](Cc1ccc(OP(=O)(O)O)cc1)C(=O)N[C@H]1CCC(=O)N2CCC[C@@H](C(=O)NCc3ccc(O)cc3)N2C1=O	> 25	> 25	> 25	> 25	> 25	> 25	> 25	> 25	> 25	> 25	> 25	> 25	> 25	> 25	24.2	> 25		
CC[O-].CC[O-].O=C([CH-]C(=O)c1ccccc1)c1ccccc1.O=C([CH-]C(=O)c1ccccc1)c1ccccc1.[Ti+4]	> 100	> 100	> 100	> 100	44.3	> 100	> 100	> 100	19.8	> 100	> 100	> 100	> 100	> 100	> 100	> 100		
COC(=O)Nc1nc2ccc(Sc3ccccc3)cc2[nH]1	0.225	> 43.5	0.441	18.3	0.247	11.6	0.123	0.421	0.234	0.933	0.524	25.7	1.27	17.3	0.848	20.5		
N#Cc1ccccc1Nc1ccccc1S		> 100		71.2		> 100				35.8		97.1		> 100		72.4	> 100	42.8
N#CC(C#N)=Cc1ccc(-c2ccc(-c3nc4ccccc4o3)cc2)o1	40	> 100	65.8	> 100	38.4	> 100	66.7	> 100	31.1	> 100		16.5	23.7	77.3	58.4	> 100		
CON	> 100	> 100	> 100	> 100	> 100	> 100	> 100	> 100	> 100	> 100	> 100	> 100	> 100	> 100	> 100	> 100		
ClC1=C(Cl)C(Cl)=C(Cl)C1=Cc1ccc(Cl)cc1	0.429		0.396	2.11	0.726	2.18	0.309	0.853	0.733	2.18	0.375	1.82	0.331	0.899	0.539	2.52		
